Earlier results in the CATMoS acute toxicity set (Mansouri et al. 2021).

Test: rat acute oral toxicity
Conditions: in vivo
Text: […]The data set underlying the modeling effort for this project was initially compiled by NICEATM and U.S. EPA’s CCTE. Briefly, LD50 data were collected from rat acute oral systemic toxicity tests, including limit tests, ranges/confidence intervals, and discrete LD50 values. The full data set included 21,200 LD50 entries for 15,688 substances. […] Data were reviewed to ensure that LD50 values with obvious errors in the extracted data such as unit conversion errors (e.g., comma and decimal separator misplacements) were either fixed or removed. After this review, 16,209 LD50 values remained. Many of the chemicals represented had multiple LD50 entries, requiring that a single representative value per Chemical Abstracts Service Registry Number (CASRN) identifier be defined to facilitate modeling efforts. Based on ATWG feedback and to define the representative LD50 as a protective value while accounting for the distribution across multiple LD50s, the median of the lowest quartile was computed using only discrete LD50 values (omitting limit test data and range and confidence interval data). A detailed summary of the data compilation is available online on the NICEATM webpage dedicated to the collaborative modeling project (NTP 2020).
[…][…] For categorical designations, limit test and range/confidence interval LD50 data were integrated wherever possible. As such, the number of chemicals with end point values/calls varies across the modeling end points (Table 3) based on whether chemicals had representative LD50 values and/or other data. If a chemical had both, the representative value was used to determine categorical calls rather than limit test data. Some data were useable only for certain end points and categories depending on the thresholds. For example, ranges that spanned multiple hazard categories were considered only for the binary (very toxic/nontoxic) end points and omitted from rendering a determination for hazard category assignment.
[…]The final data set comprising 11,992 chemicals was split into training and evaluation sets […], respectively. This process was performed semirandomly by ordering chemicals based on the five end points (categorical and continuous LD50 values) and partitioning every fourth record into the evaluation set accordingly. This approach was taken to ensure an equivalent distribution of the LD50 values and the different hazard categories between the training and the evaluation sets without supervised sampling of the chemicals based on structures (Figure 1A). The sources of the chemical structures were also kept equivalent between the two sets, with chemical structures obtained from DSSTox, being the highest quality, representing over 75% of each set (Figure 1B).
In the case of ClC1=C(Cl)C2(Cl)C(CBr)CC1(Cl)C2(Cl)Cl (stereo not given), the LD50 is listed as 12500 mg/kg. For Cc1cc(C2(c3ccc(O)c(C)c3)C(=O)Nc3ccccc32)ccc1O, the LD50 is listed as 520 mg/kg. For C=CC(=O)OCCSCC, the LD50 is listed as 2500 mg/kg. For CCNc1nc(NC(C)CC)nc(OC)n1 (stereo not given), the LD50 is given as 1000 mg/kg. In the case of COc1c2occc2cc2ccc(=O)oc12, the LD50 is given as 791 mg/kg. For O=C(O)C(F)(F)C(F)(F)C(F)(F)C(F)(F)C(F)(F)C(F)F, the LD50 is given as 1440 mg/kg. For CCO[Si](CNCCCCCCN)(OCC)OCC, the LD50 is listed as 500 mg/kg. For O=C(O)c1cc([N+](=O)[O-])cc([N+](=O)[O-])c1O, the LD50 is listed as 860 mg/kg. For O=c1[nH]c(=O)c2ccccc2o1, the LD50 is given as 750 mg/kg. In the case of CC(C)OP(=O)(OC(C)C)SCc1ccccc1, the LD50 is given as 550 mg/kg. For CC(C)=CCCC(C)CCO (stereo not given), the LD50 is given as 3450 mg/kg. For C=C(C)C(=O)OCC1CCC2OC2C1 (stereo not given), the LD50 is given as 2500 mg/kg. For CCOC(=O)Nc1cccc2c1CN(C)CC2c1ccc(Cl)cc1 (stereo not given), the LD50 is listed as 665 mg/kg. For O=S(=O)(F)C1CCC(S(=O)(=O)F)C1 (stereo not given), the LD50 is listed as 7.9 mg/kg. For CCCCNC(=O)OCC(O)C1COc2ccccc2O1 (stereo not given), the LD50 is listed as 1500 mg/kg. In the case of CCOc1ccc(NC(=O)CC(C)=O)cc1, the LD50 is listed as 176 mg/kg. In the case of CC(Cl)(Cl)C(=O)OCCOc1cc(Cl)c(Cl)cc1Cl, the LD50 is given as 1000 mg/kg. In the case of C#CCOC(=O)/C=C(C)/C=C/CC(C)CCCC(C)C (stereo not given), the LD50 is given as 4900 mg/kg. For Clc1ccc(S/N=N/c2cc(Cl)c(Cl)cc2Cl)cc1, the LD50 is listed as 4000 mg/kg. In the case of Cc1c(Cl)cccc1Nc1ccccc1C(=O)O, the LD50 is given as 225 mg/kg. In the case of Clc1cc2oc3c(Cl)c(Cl)c(Cl)cc3c2cc1Cl, the LD50 is listed as 0.916 mg/kg. For CN(C)C(=S)N(C)C, the LD50 is given as 920 mg/kg. In the case of C/[N+]([O-])=N/CO[C@@H]1O[C@H](CO)[C@@H](O)[C@H](O)[C@H]1O, the LD50 is given as 270 mg/kg. For CC(=O)CNC(C)(C)Cc1ccc(Cl)cc1, the LD50 is listed as 250 mg/kg. In the case of CCN(CCC(=O)OC)c1ccccc1, the LD50 is given as 2450 mg/kg. In the case of CCCCCCCC(=O)NO, the LD50 is listed as 10700 mg/kg. For CC(C)=CCC/C(C)=C/C#N, the LD50 is listed as 3100 mg/kg. In the case of CCCCCl, the LD50 is listed as 2670 mg/kg. For COCCOC(=O)C=CC(=O)OCCOC, the LD50 is listed as 3340 mg/kg. For C=CCc1ccccc1, the LD50 is given as 5540 mg/kg. In the case of C1CCc2nnnn2CC1, the LD50 is listed as 140 mg/kg. For O=C(OCCN1CCOCC1)c1cccnc1Nc1cccc(C(F)(F)F)c1, the LD50 is listed as 4300 mg/kg. In the case of CCCCN1CCCC1C(=O)Nc1c(C)cc(C)cc1C (stereo not given), the LD50 is listed as 14000 mg/kg. In the case of CCC(=O)c1ccc2c(c1)N(CC(C)N(C)C)c1ccccc1S2 (stereo not given), the LD50 is given as 500 mg/kg. In the case of C=COCCOC, the LD50 is given as 3900 mg/kg. In the case of CCOc1ccc(-n2c(C)nc3ccccc3c2=O)cc1, the LD50 is given as 4800 mg/kg. In the case of O=C1CN(N=Cc2ccc([N+](=O)[O-])o2)C(=O)N1, the LD50 is given as 604 mg/kg. For C=CC(COC)c1ccccc1OC(=O)NC (stereo not given), the LD50 is listed as 100 mg/kg. For CCCOC(=O)C1COc2ccccc2O1 (stereo not given), the LD50 is given as 7450 mg/kg. For CCN(CC)CCCNc1c2ccccc2nc2cccc([N+](=O)[O-])c12, the LD50 is listed as 63.2 mg/kg. For CCSCc1cnc(C)c(O)c1CO, the LD50 is given as 3770 mg/kg. For CN(C(=O)CF)c1cccc2ccccc12, the LD50 is listed as 67 mg/kg. In the case of C=C1/C(=C/C=C2/CCC[C@]3(C)[C@@H]([C@H](C)CCCC(C)C)CC[C@@H]23)C[C@@H](O)C[C@@H]1O, the LD50 is listed as 0.34 mg/kg. For OCC(F)(F)C(F)(F)C(F)(F)C(F)(F)C(F)(F)C(F)(F)C(F)(F)C(F)F, the LD50 is given as 4400 mg/kg. For COc1cnc(C)s1, the LD50 is given as 1250 mg/kg. In the case of CCN(CC)CC#CC(C)(C)OC(=O)C(O)(c1ccccc1)C1CCCCC1 (stereo not given), the LD50 is given as 735 mg/kg. For CN(Sc1cc(Cl)ccc1Cl)C(=O)Oc1cccc2c1OC(C)(C)C2, the LD50 is given as 25 mg/kg. For O=S1(=O)CCCO1, the LD50 is listed as 100 mg/kg. For Clc1ccc(C(OCCN2CCCCC2)c2ccccc2)cc1 (stereo not given), the LD50 is listed as 1990 mg/kg. In the case of COC1CC(=C(c2cccs2)c2cccs2)C[N+](C)(C)C1 (stereo not given), the LD50 is listed as 1210 mg/kg. In the case of O=C(O)C(Cl)CCl (stereo not given), the LD50 is listed as 289 mg/kg. In the case of CC(C)C(OCCO)C(C)C, the LD50 is given as 1070 mg/kg. In the case of Cc1ccc(C#N)cc1, the LD50 is given as 3800 mg/kg. For CC(Oc1ccc2ccccc2c1)C(O)=Nc1ccccc1 (stereo not given), the LD50 is given as 15000 mg/kg. In the case of Cc1cccc(CN2CCN(C(c3ccccc3)c3ccc(Cl)cc3)CC2)c1 (stereo not given), the LD50 is given as 1750 mg/kg. In the case of CN1CCC(=C2c3ccccc3C(O)c3ccccc32)CC1 (stereo not given), the LD50 is given as 135 mg/kg. In the case of CC(C)COC(=O)CCCOc1ccc(Cl)cc1Cl, the LD50 is listed as 300 mg/kg. For CCCCNC(=N)NC(=N)N, the LD50 is given as 320 mg/kg. For Cc1ccccc1C(=O)NC1=NCCS1, the LD50 is given as 912 mg/kg. For CCOP(=S)(OCC)SCCC(F)=C(F)F, the LD50 is given as 681 mg/kg. In the case of O=C1CCCCCCCC(=O)OCCO1, the LD50 is listed as 9200 mg/kg. In the case of CCC(=O)c1ccc(N)cc1, the LD50 is listed as 177 mg/kg. For COc1cc(NC(=O)C(N=Nc2ccc(-c3ccc(N=NC(C(C)=O)C(=O)Nc4ccc(C)cc4C)c(Cl)c3)cc2Cl)C(C)=O)c(OC)cc1Cl (stereo not given), the LD50 is given as 2230 mg/kg. In the case of c1ccc([I+]c2ccccc2)cc1, the LD50 is listed as 60 mg/kg. For CC(CN(C)C)CN1c2ccccc2Sc2ccccc21 (stereo not given), the LD50 is given as 210 mg/kg.
